One experiment relates to MS-5 cells. Description: SDF-1, bFGF and HGF secretion by stromal cells (ELISA of supernatants). Particulars: 10 μM, compared with untreated cells. The experiment is classed as cell-based, mouse. As for the experimental part: (§1) FIGS. 7A-7F. Effect of TL-1, AK-1 and cyclic TL-1 on SDF-1, bFGF and HGF secretion by different stromal cell lines. MS-5, MBA-15 and MG-63 cells were co-cultured with 10 μM TL-1, AK-1 or cyclic TL-1 in the serum free medium for 6 hrs, or without added peptide (UT). Levels of SDF-1 (A-C), bFGF (D) and HGF (E, F) were detected in the collected supernatants by ELISA. Data shown are the mean±SD of 2 separate experiments. *P<0.05 compared to control.
(§2) SDF-1 levels in tested samples were determined by ELISA as described (Kalinkovich, A., et al., 2006) where the K15C monoclonal antibodies (mAb, INRA, Paris, France) recognizing the first three amino acids of SDF-1 were utilized as a capture Ab (10 μg/mL) in order to measure levels of intact, non-cleaved SDF-1. Levels of basic FGF (bFGF) and HGF in tested samples were determined by using corresponding capture mAbs and polyclonal biotynilated Abs (R&D Systems) as recommended by the manufacturer. In order to examine SDF-1, bFGF and HGF levels in cell supernatants, MS-5, MBA-15 and MG-63 cells were seeded in 24-well Costar wells and cultivated in RPMI 1640 or αMEM Eagle medium, respectively, with 10% FCS. When the cells reached confluence, the medium was changed to serum free medium and cells were cultivated for additional 6 hrs in the presence of various concentrations of the peptides. Medium samples were collected and centrifuged 10 min at 6000×g at 4° C. to remove cell debris. Supernatants were collected and kept at −70° C. until tested.
(§3) Because BM stromal cells, such as endosteal bone lining osteoblasts and endothelial cells are the main source of human and murine SDF-1, the capability of the peptides to affect SDF-1 secretion by mouse stromal MS-5 and MBA-15 cells, and human osteoblast MG-63 cells was examined.
(§4) In order to examine the capability of the peptides to induce secretion of other proteins, the levels of Hepatocyte growth factor (HGF) and Basic fibroblast growth factor (bFGF) were detected in the same supernatants.
On the technique in general: An ELISA detects its analyte on a solid surface through an enzyme-linked reagent.

The test system of another experiment is MBA-15 cells. Described as above. The experiment is classed as cell-based, mouse. The following applies: 10 μM. The method, then:
as §1, §2, §3, §4

The test system of a further experiment is MG-63 cells. The experiment is described as above. The experiment is classed as cell-based, human. Particulars: 10 μM, compared with untreated cells. As for the experimental part:
as §1
as §2, with “When the cells reached confluence, the medium was changed to serum free medium and cells were cultivated for additional 6 hrs in the presence of various concentrations of the peptides. Medium samples were collected and centrifuged 10 min at 6000×g at 4° C. to remove cell debris. Supernatants were collected and kept at −70° C. until tested.” left out
as §4

In another experiment the test system is G2 cells. Description: Transwell migration towards SDF-1. The experiment is classed as cell-based, human. As for the experimental part:
FIGS. 8A-8D. Effect of TL-1 and cyclic TL-1 on in vitro and in vivo cell migration. (A, C) Human CD3^+, G2, cord blood CD34^+ and peripheral blood mononuclear (PBMC) cells were preincubated with 1 and 10 μM TL-1 for 3 hrs in serum free medium, washed and allowed to migrate towards SDF-1. Migrated cells were collected and calculated by flow cytometry. Percentage of migrated cells is presented as compared to untreated (UT) control taken as 100%. (B) G2 cells were similarly preincubated with 10 μM TL-1 or cTL-1 for the indicated periods of time and percentage of migrated cells is depicted. (D) Homing assay. G2 cells were similarly preincubated with 10 μM TL-1 or cTL-1 for 3 hrs, washed and i.v. injected (10×10^6/mouse) to non-irradiated NOD/SCID mice. Percentage of G2 cells in the murine BM and spleens was determined by staining with anti-human CD45 Ab and compared with untreated (UT) cells. […]
FIGS. 9A-9B. […] Migrated cells were collected and calculated by flow cytometry. […]
Various cells (1×10^6/mL), untreated or pretreated with peptides for 3 hrs at 96-well flat bottom plates at 37° C. were washed, 2×10^5 cells/100 μL were added to the upper chambers of Costar 24-well transwell plates with 5 μm pore filters (Corning Inc., Corning, N.Y.) and allowed to migrate for 2-4 hrs at 37° C. […] Migrated cells were collected from the lower chambers and counted using a flow cytometer. […]

Peptide text beside a SMILES is read from it.

Turning to `N=C(N)NCCC[C@@H]1NC(=O)CNC(=O)[C@H](CCCNC(=N)N)NC(=O)[C@H](CCCCN)NC(=O)[C@H](CCCCN)NC(=O)[C@H](CCCNC(=N)N)NC(=O)[C@H](CCCNC(=N)N)NC(=O)[C@H](CS)NC(=O)[C@H](CS)NC(=O)[C@H](CCCCN)NC1=O` [cyclic TL-1, 1,10-cyclo[RGRKCCRRKK]] (cyclo(CCRRKKRGRK)), the “levels of SDF-1 in supernatants” value in the experiment with MS-5 cells is “increased the levels of SDF-1 secretion by MS-5 and MBA-15 cells but much less as compared with TL-1 and AK-1”; in the experiment on MBA-15 cells (compared with untreated cells), “increased the levels of SDF-1 secretion by MS-5 and MBA-15 cells but much less as compared with TL-1 and AK-1”; in the experiment with MG-63 cells it was “ineffective”. Besides, the “HGF secretion into supernatants” value in the experiment with MBA-15 cells was “induced elevation”. Also, the SDF-1-induced migration entry in the experiment with G2 cells (1 μM) is given as “ineffective”. In addition, the “inhibition of SDF-1-induced migration” value in the experiment with G2 cells (10 μM) is 2 fold.

The values above are taken from patent publication US9567371B2, “Short beta-defensin-derived peptides” (Yeda Research and Development Co. Ltd., priority 2009, dated 2017).
